System: FLAP (5-lipoxygenase activating protein)
Assay: In vitro binding test: displacement of [3H]-7-chloro-3-(5-((3-fluoropyridin-2-yl)methoxy)-2-methylphenyl)-3,4-dihydroquinazolin-2(1H)-one from Sf9 microsome fractions
Parameters: species or system human and mouse
Settings: Sf9 microsome fractions expressing FLAP; 100% = radioligand binding with 10 μM sodium 3-(3-(tert-butylsulfanyl)-1-(4-chlorobenzyl)-5-isopropyl-1H-indol-2-yl)-2,2-dimethylpropanoate, 0% = DMSO; test compound concentration not given
Method in brief: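 Sf9 microsomes expressing human or mouse FLAP (2 μg/mL) preincubated with compound 10 min at room temperature, then 120 nM tritiated quinazolinone ligand added for 60 min; buffer 100 mM Tris-HCl pH 7.5 with NaCl, EDTA, DTT, glycerol, Tween20. Bound ligand filtered and counted by scintillation; 10 μM indole propanoate defines 100% inhibition, DMSO 0%.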

With `CC(C)(C)Cc1ccc(OCc2c(F)cccc2F)cc1N1Cc2ccc(CO)cc2NC1=O` [Example 294, 3-(5-((2,6-difluorobenzyl)oxy)-2-(2,2-dimethylpropyl)phenyl)-7-(hydroxymethyl)-3,4-dihydroquinazolin-2(1H)-one] the “inhibitory rate (%)” value was 65%.

For `COC(=O)c1ccccc1CN1C(=O)N(c2cc(OCc3ncccc3F)ccc2C)Cc2c(Cl)cccc21` [Example 295, methyl 2-((5-chloro-3-(5-((3-fluoropyridin-2-yl)methoxy)-2-methylphenyl)-2-oxo-3,4-dihydroquinazolin-1(2H)-yl)methyl)benzoate], the “inhibitory rate (%)” value was 102%.

For `Cc1ccc(OCc2ncccc2F)cc1N1Cc2c(Cl)cccc2N(Cc2ccccc2C(=O)O)C1=O` [Example 296, 2-((5-chloro-3-(5-((3-fluoropyridin-2-yl)methoxy)-2-methylphenyl)-2-oxo-3,4-dihydroquinazolin-1(2H)-yl)methyl)benzoic acid], the “inhibitory rate (%)” value was 95%.

With `Cc1ccc(OCc2ncccc2F)cc1N1Cc2c(cccc2C(F)(F)F)NC1=O` [Example 297, 3-(5-((3-fluoropyridin-2-yl)methoxy)-2-methylphenyl)-5-(trifluoromethyl)-3,4-dihydroquinazolin-2(1H)-one] the “inhibitory rate (%)” value was 106%.

With `Cc1ccc(OCc2ncccc2F)cc1N1Cc2c(C#N)cccc2NC1=O` [Example 298, 3-(5-((3-fluoropyridin-2-yl)methoxy)-2-methylphenyl)-2-oxo-1,2,3,4-tetrahydroquinazoline-5-carbonitrile] the “inhibitory rate (%)” value was 104%.

In the case of `Cc1ccc(OCc2ncccc2F)cc1N1Cc2c(Cl)cc(C(=O)NC3CC3)cc2NC1=O` [Example 299, 5-chloro-N-cyclopropyl-3-(5-((3-fluoropyridin-2-yl)methoxy)-2-methylphenyl)-2-oxo-1,2,3,4-tetrahydroquinazoline-7-carboxamide], the “inhibitory rate (%)” value is reported as 113%.

For `O=C1Nc2ccccc2CN1c1cc(OCc2ncccc2F)ccc1F` [Example 300, 3-(2-fluoro-5-((3-fluoropyridin-2-yl)methoxy)phenyl)-3,4-dihydroquinazolin-2(1H)-one], the “inhibitory rate (%)” value was 105%.

With `O=C1Nc2cc(Br)ccc2CN1c1cc(OCc2ncccc2F)ccc1C(F)(F)F` [Example 301, 7-bromo-3-(5-((3-fluoropyridin-2-yl)methoxy)-2-(trifluoromethyl)phenyl)-3,4-dihydroquinazolin-2(1H)-one] the “inhibitory rate (%)” value was 104%.

For `Cc1ccc(OCc2ncccc2F)cc1N1Cc2ccc(C(=O)N(C)C3CC3)cc2NC1=O` [Example 302, N-cyclopropyl-3-(5-((3-fluoropyridin-2-yl)methoxy)-2-methylphenyl)-N-methyl-2-oxo-1,2,3,4-tetrahydroquinazoline-7-carboxamide], the “inhibitory rate (%)” value was 104%.

In the case of `Cc1ccc(OCc2ncccc2F)cc1N1Cc2ccc(C(=O)NCC(F)(F)F)cc2NC1=O` [Example 303, 3-(5-((3-fluoropyridin-2-yl)methoxy)-2-methylphenyl)-2-oxo-N-(2,2,2-trifluoroethyl)-1,2,3,4-tetrahydroquinazoline-7-carboxamide], the “inhibitory rate (%)” value is reported as 108%.

For `Cc1cc(I)c(OCc2ncccc2F)cc1N1Cc2ccc(Cl)cc2NC1=O` [Example 304, 7-chloro-3-(5-((3-fluoropyridin-2-yl)methoxy)-4-iodo-2-methylphenyl)-3,4-dihydroquinazolin-2(1H)-one], the “inhibitory rate (%)” value was 64%.

With `Cc1ccc(OCc2ncccc2F)cc1N1Cc2c(O)cccc2NC1=O` [Example 305, 3-(5-((3-fluoropyridin-2-yl)methoxy)-2-methylphenyl)-5-hydroxy-3,4-dihydroquinazolin-2(1H)-one] the “inhibitory rate (%)” value was 103%.

With `O=C1Nc2ccccc2CN1c1cc(OCc2ncccc2F)ccc1CN1CCCC1` [Example 306, 3-(5-((3-fluoropyridin-2-yl)methoxy)-2-(pyrrolidin-1-ylmethyl)phenyl)-3,4-dihydroquinazolin-2(1H)-one] the “inhibitory rate (%)” value was 74%.

— patent publication US20150299188A1, “HETEROCYCLIC COMPOUND” (priority 2012, published 2015)
